Experimental data reported in PubChem BioAssay (NCI).
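Results reflect a 48-hour exposure of cells in 96-well plates to compound at five concentrations. TGI denotes the concentration required for complete inhibition of growth.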

Legend:
Assay in all cases: NCI tumour cell line growth inhibition, 48 h
HCT-116 colon = tested on: HCT-116 colon
IGROV1 ovarian = tested on: IGROV1 ovarian
NCI-H226 lung = tested on: NCI-H226 lung
HCT-15 colon = tested on: HCT-15 colon
RXF 393 renal = tested on: RXF 393 renal
MCF7 breast = tested on: MCF7 breast
OVCAR-3 ovarian = tested on: OVCAR-3 ovarian
KM12 colon = tested on: KM12 colon
DU-145 prostate = tested on: DU-145 prostate
SNB-75 CNS = tested on: SNB-75 CNS

Cc1ccc(-n2c(O)c3c(N)n[nH]c3c(C#N)c2=O)cc1
TGI (HCT-116 colon): > 100 µM
TGI (IGROV1 ovarian): > 100 µM
TGI (NCI-H226 lung): > 100 µM
TGI (HCT-15 colon): > 100 µM
TGI (RXF 393 renal): > 100 µM
TGI (MCF7 breast): > 100 µM
TGI (OVCAR-3 ovarian): > 100 µM
TGI (KM12 colon): > 100 µM
TGI (DU-145 prostate): > 100 µM
TGI (SNB-75 CNS): > 100 µM

c1cc(C[S+]2CCCC2)ccc1C[S+]1CCCC1
TGI (HCT-116 colon): > 100 µM
TGI (IGROV1 ovarian): > 100 µM
TGI (NCI-H226 lung): > 100 µM
TGI (HCT-15 colon): > 100 µM
TGI (RXF 393 renal): > 100 µM
TGI (MCF7 breast): > 100 µM
TGI (OVCAR-3 ovarian): > 100 µM
TGI (KM12 colon): > 100 µM
TGI (DU-145 prostate): > 100 µM
TGI (SNB-75 CNS): > 100 µM

N/N=C1/C(=N/O)CCc2nonc21
TGI (HCT-116 colon): > 100 µM
TGI (IGROV1 ovarian): > 100 µM
TGI (NCI-H226 lung): > 100 µM
TGI (HCT-15 colon): > 100 µM
TGI (RXF 393 renal): > 100 µM
TGI (MCF7 breast): > 100 µM
TGI (OVCAR-3 ovarian): > 100 µM
TGI (KM12 colon): > 100 µM
TGI (DU-145 prostate): > 100 µM
TGI (SNB-75 CNS): > 100 µM

N#Cc1c(N2CCCC2)ncn(Cc2ccccc2)c1=S
TGI (HCT-116 colon): > 100 µM
TGI (IGROV1 ovarian): > 100 µM
TGI (NCI-H226 lung): > 100 µM
TGI (HCT-15 colon): > 100 µM
TGI (RXF 393 renal): > 100 µM
TGI (MCF7 breast): > 100 µM
TGI (OVCAR-3 ovarian): > 100 µM
TGI (KM12 colon): > 100 µM
TGI (DU-145 prostate): > 100 µM
TGI (SNB-75 CNS): > 95.2 µM

O=C1OC2(C(F)(F)F)Oc3ccccc3CN2C12CCCCC2 (stereo not given)
TGI (HCT-116 colon): 82.8 µM
TGI (IGROV1 ovarian): > 100 µM
TGI (NCI-H226 lung): 90.8 µM
TGI (HCT-15 colon): 84.1 µM
TGI (RXF 393 renal): 48.9 µM
TGI (MCF7 breast): > 100 µM
TGI (OVCAR-3 ovarian): > 100 µM
TGI (KM12 colon): 90.8 µM
TGI (DU-145 prostate): > 100 µM
TGI (SNB-75 CNS): 59.1 µM

Cc1cc(N=Cc2c(CO)cnc(C)c2O)c(N=Cc2c(CO)cnc(C)c2O)cc1C.[Zn]
TGI (HCT-116 colon): > 100 µM
TGI (IGROV1 ovarian): > 100 µM
TGI (NCI-H226 lung): > 100 µM
TGI (HCT-15 colon): > 100 µM
TGI (RXF 393 renal): > 100 µM
TGI (MCF7 breast): > 100 µM
TGI (OVCAR-3 ovarian): > 100 µM
TGI (KM12 colon): > 100 µM
TGI (DU-145 prostate): > 100 µM
TGI (SNB-75 CNS): > 100 µM

O=c1c2ccccc2n2nnc3ccc(NCCCNCCNCCCNc4ccc5nnn6c7ccccc7c(=O)c4c56)c1c32
TGI (HCT-116 colon): > 38.5 µM
TGI (IGROV1 ovarian): 8.58 µM
TGI (NCI-H226 lung): 0.99 µM
TGI (HCT-15 colon): > 26.4 µM
TGI (RXF 393 renal): 22.6 µM
TGI (MCF7 breast): 6.92 µM
TGI (OVCAR-3 ovarian): 16.8 µM
TGI (KM12 colon): > 22.5 µM
TGI (DU-145 prostate): > 50 µM
TGI (SNB-75 CNS): > 27.2 µM

CCOC(=O)/C(C#N)=C/c1ccc(CO)o1
TGI (HCT-116 colon): > 100 µM
TGI (IGROV1 ovarian): > 100 µM
TGI (NCI-H226 lung): > 100 µM
TGI (HCT-15 colon): > 100 µM
TGI (RXF 393 renal): > 100 µM
TGI (MCF7 breast): > 100 µM
TGI (OVCAR-3 ovarian): > 100 µM
TGI (KM12 colon): > 100 µM
TGI (DU-145 prostate): > 100 µM
TGI (SNB-75 CNS): > 100 µM

N#CC(C#N)=Cc1c(O)ccc2ccccc12
TGI (HCT-116 colon): 30.9 µM
TGI (IGROV1 ovarian): 39.4 µM
TGI (NCI-H226 lung): 50 µM
TGI (HCT-15 colon): 37.5 µM
TGI (RXF 393 renal): 31.2 µM
TGI (MCF7 breast): 34.3 µM
TGI (OVCAR-3 ovarian): 27.4 µM
TGI (KM12 colon): 33.3 µM
TGI (DU-145 prostate): 27.8 µM
TGI (SNB-75 CNS): 17.9 µM

COc1ccc(/C=C2\CC3C4CC=C5C[C@@H](O)CC[C@]5(C)C4CC[C@]3(C)\C2=N\O)cc1OC (stereo not given in full)
TGI (HCT-116 colon): > 100 µM
TGI (IGROV1 ovarian): > 100 µM
TGI (NCI-H226 lung): > 100 µM
TGI (HCT-15 colon): > 100 µM
TGI (RXF 393 renal): > 100 µM
TGI (MCF7 breast): > 100 µM
TGI (OVCAR-3 ovarian): 8.74 µM
TGI (KM12 colon): > 100 µM
TGI (DU-145 prostate): > 100 µM
TGI (SNB-75 CNS): > 100 µM

CC(NC1=NCCO1)c1cccc([N+](=O)[O-])c1 (stereo not given)
TGI (HCT-116 colon): > 100 µM
TGI (IGROV1 ovarian): > 100 µM
TGI (NCI-H226 lung): > 100 µM
TGI (HCT-15 colon): > 100 µM
TGI (RXF 393 renal): > 100 µM
TGI (MCF7 breast): > 100 µM
TGI (OVCAR-3 ovarian): > 100 µM
TGI (KM12 colon): > 100 µM
TGI (DU-145 prostate): > 100 µM
TGI (SNB-75 CNS): > 100 µM

COCN1CCN=c2c1c1c3c(c4ccccc4n23)CCC1
TGI (HCT-116 colon): > 100 µM
TGI (IGROV1 ovarian): > 100 µM
TGI (NCI-H226 lung): > 100 µM
TGI (HCT-15 colon): > 100 µM
TGI (RXF 393 renal): > 100 µM
TGI (MCF7 breast): > 100 µM
TGI (OVCAR-3 ovarian): > 100 µM
TGI (KM12 colon): > 100 µM
TGI (DU-145 prostate): > 100 µM
TGI (SNB-75 CNS): > 100 µM

Nc1ccc(-c2nc3cc(F)ccc3s2)cc1I
TGI (HCT-116 colon): 53 µM
TGI (IGROV1 ovarian): 22.3 µM
TGI (NCI-H226 lung): 21 µM
TGI (HCT-15 colon): > 66.5 µM
TGI (RXF 393 renal): 31.3 µM
TGI (MCF7 breast): 3.91 µM
TGI (OVCAR-3 ovarian): > 37.9 µM
TGI (KM12 colon): > 100 µM
TGI (DU-145 prostate): > 100 µM
TGI (SNB-75 CNS): 33.8 µM

Cc1cc2ccccc2n1CC(=O)N1CCCC1
TGI (HCT-116 colon): > 100 µM
TGI (IGROV1 ovarian): > 100 µM
TGI (NCI-H226 lung): > 100 µM
TGI (HCT-15 colon): > 100 µM
TGI (RXF 393 renal): > 100 µM
TGI (MCF7 breast): > 100 µM
TGI (OVCAR-3 ovarian): > 100 µM
TGI (KM12 colon): > 100 µM
TGI (DU-145 prostate): > 100 µM
TGI (SNB-75 CNS): > 100 µM

Cc1ccc(C)c(COCCOCn2cc(Br)c(N)nc2=O)c1
TGI (HCT-116 colon): > 100 µM
TGI (IGROV1 ovarian): > 100 µM
TGI (NCI-H226 lung): > 100 µM
TGI (HCT-15 colon): > 100 µM
TGI (RXF 393 renal): > 100 µM
TGI (MCF7 breast): > 100 µM
TGI (OVCAR-3 ovarian): > 100 µM
TGI (KM12 colon): > 100 µM
TGI (DU-145 prostate): > 100 µM
TGI (SNB-75 CNS): > 100 µM

C=CCN(c1cc(OCc2ccccc2)c(NC(C)=O)cc1[N+](=O)[O-])S(C)(=O)=O
TGI (HCT-116 colon): > 100 µM
TGI (IGROV1 ovarian): 45.4 µM
TGI (NCI-H226 lung): 25.2 µM
TGI (HCT-15 colon): > 100 µM
TGI (RXF 393 renal): 40.3 µM
TGI (MCF7 breast): > 100 µM
TGI (OVCAR-3 ovarian): > 100 µM
TGI (KM12 colon): > 100 µM
TGI (DU-145 prostate): > 100 µM
TGI (SNB-75 CNS): 43.6 µM

CCOC(=O)c1c2c(n(-c3ccc(OC)cc3)c1C)C(=O)C(=O)c1ccccc1-2
TGI (HCT-116 colon): 3 µM
TGI (IGROV1 ovarian): 12.7 µM
TGI (NCI-H226 lung): 4.12 µM
TGI (HCT-15 colon): 8.13 µM
TGI (RXF 393 renal): 4.05 µM
TGI (MCF7 breast): 6.24 µM
TGI (OVCAR-3 ovarian): 1.34 µM
TGI (KM12 colon): 3.61 µM
TGI (DU-145 prostate): 3.06 µM
TGI (SNB-75 CNS): 4.09 µM
